How the values were obtained:
[1] = biological target: T1, human FGFR3 wild type enzyme (cytoplasmic domain) (Homo sapiens, UniProt P22607); assay: FGFR3 wild type mobility shift assay (enzymatic assay); assay type: biochemical; settings: 75 μM ATP, 50 minutes at 30° C., Caliper EZ reader II
T1 construct: human FGFR3 wild type enzyme (cytoplasmic domain, from Carna Biosciences)
Protocol: FGFR3 Wild Type Mobility Shift Assay (Enzymatic Assay)
(§1) In a final reaction volume of 25 μL, 0.04 ng/μL human FGFR3 wild type enzyme (cytoplasmic domain, from Carna Biosciences) was incubated with 75 μM ATP, 1 μM FL-peptide 30 substrate and 250 nL of testing compound (1% DMSO final) in assay buffer (100 mM HEPES pH 7.4, 10 mM MgCl2, 0.003% Brij35, 1 mM DTT). After incubation for 50 minutes at 30° C. the reaction was stopped with 10 μL of 0.5M EDTA pH 8.0, and then 25 μL of reaction mixture was transferred to reading plate and measured on Caliper EZ reader II.

[2] = biological target: T2, human FGFR3 V555M enzyme (cytoplasmic domain carrying V555M mutation) (Homo sapiens, UniProt P22607, V555M); assay: FGFR3 V555M mobility shift assay (enzymatic assay); assay type: biochemical; settings: 30 μM ATP, 45 minutes at 30° C., Caliper EZ reader II
T2 construct: human FGFR3 V555M enzyme (cytoplasmic domain carrying V555M mutation, from Carna Biosciences)
T2 sequence (P22607 397-806 V555M): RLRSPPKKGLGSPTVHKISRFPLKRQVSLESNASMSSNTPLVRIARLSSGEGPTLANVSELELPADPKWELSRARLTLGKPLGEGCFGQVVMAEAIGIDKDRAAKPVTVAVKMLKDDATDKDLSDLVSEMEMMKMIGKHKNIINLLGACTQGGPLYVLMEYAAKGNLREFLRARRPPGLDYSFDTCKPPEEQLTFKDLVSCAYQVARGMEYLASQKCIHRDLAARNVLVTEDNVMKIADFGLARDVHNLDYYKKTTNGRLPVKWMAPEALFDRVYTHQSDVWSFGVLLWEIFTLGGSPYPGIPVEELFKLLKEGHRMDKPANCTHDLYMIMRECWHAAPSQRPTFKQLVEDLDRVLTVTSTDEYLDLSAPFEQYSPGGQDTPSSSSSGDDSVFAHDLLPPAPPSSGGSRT
Protocol: FGFR3 V555M Mobility Shift Assay (Enzymatic Assay)
as §1, with “FGFR3 V555M” for “FGFR3 wild type”, “(cytoplasmic domain carrying V555M mutation,” for “(cytoplasmic domain,”, “with 30” for “with 75”, “for 45” for “for 50”

[3] = biological target: T3, NIH/3T3 cells overexpressing FGFR3 V555M-TACC3 fusion protein (Homo sapiens, UniProt P22607, V555M, cells depend on it); assay: NIH/3T3 FGFR3 V555M-TACC3 cell proliferation assay; assay type: cell-based; settings: 72-hr incubation, CellTiter Glo; read-out: NIH/3T3 FGFR3 V555M-TACC3 CTG (IC50)
T3 construct: fused on or other part: Q9Y6A5 (Transforming acidic coiled-coil-containing protein 3)
T3 sequence (P22607 whole entry V555M, the tested form may be a part): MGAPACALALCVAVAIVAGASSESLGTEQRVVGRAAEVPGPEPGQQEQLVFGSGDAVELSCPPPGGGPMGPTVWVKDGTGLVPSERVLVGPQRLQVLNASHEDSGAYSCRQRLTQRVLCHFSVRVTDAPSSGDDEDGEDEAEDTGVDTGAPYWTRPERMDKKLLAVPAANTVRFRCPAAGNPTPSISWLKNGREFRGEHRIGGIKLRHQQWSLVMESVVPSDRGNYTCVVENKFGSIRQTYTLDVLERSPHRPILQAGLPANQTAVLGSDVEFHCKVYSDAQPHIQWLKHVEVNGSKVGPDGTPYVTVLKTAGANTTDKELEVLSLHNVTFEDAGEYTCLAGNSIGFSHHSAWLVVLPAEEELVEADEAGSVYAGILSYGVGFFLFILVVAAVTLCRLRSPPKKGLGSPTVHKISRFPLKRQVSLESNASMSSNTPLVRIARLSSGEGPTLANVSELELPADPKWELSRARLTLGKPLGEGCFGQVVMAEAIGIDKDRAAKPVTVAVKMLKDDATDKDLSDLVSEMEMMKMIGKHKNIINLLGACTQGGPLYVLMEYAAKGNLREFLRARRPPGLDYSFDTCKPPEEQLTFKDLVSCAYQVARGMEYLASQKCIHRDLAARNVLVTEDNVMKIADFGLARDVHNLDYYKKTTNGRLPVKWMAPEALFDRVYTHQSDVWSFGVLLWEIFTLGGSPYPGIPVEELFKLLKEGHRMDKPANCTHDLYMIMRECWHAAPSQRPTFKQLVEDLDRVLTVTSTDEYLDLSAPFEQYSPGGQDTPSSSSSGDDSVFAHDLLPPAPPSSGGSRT
Protocol: NIH/3T3 FGFR3 V555M-TACC3 Cell Proliferation Assay
(§2) In day 1, 90 μL of cell suspension (NIH/3T3 cells overexpressing FGFR3 V555M-TACC3 fusion protein) (total 30,000 cells per well in growth medium (DMEM containing 1% Glutamax, 10% FBS and 1% Pen/Strep)) was seeded in a 96-well plate and then incubated overnight at 37° C. and 5% CO2. In day 2, 10 μL of growth medium containing 10-fold stock solution of testing compound was added into cell cultures (9 dose points with 4× serial dilution, starting with 10 μM, 0.1% DMSO final). After 72-hr incubation at 37° C. and 5% CO2, in day 5 a volume of 50 μL CellTiter Glo (CTG) reagent was added into cell-containing 96-well plate and the plate was incubated at room temperature for 10 minutes before RLUs (relative light unit) were measured on a microplate reader with luminescence detection module. The RLU value was normalized to survival % and concentration-response curve was plotted using Prism to calculate IC50 (M), pIC50 (−log IC50) and HillSlope value.

[4] = biological target: T4, NIH/3T3 cells overexpressing FGFR3 WT-TACC3 fusion protein (Homo sapiens, UniProt P22607); assay: NIH/3T3 FGFR3 WT-TACC3 cell proliferation assay; assay type: cell-based; settings: 72-hr incubation, CellTiter Glo; read-out: NIH/3T3 FGFR3 WT-TACC3 CTG (IC50)
T4 construct: fused on or other part: Q9Y6A5 (Transforming acidic coiled-coil-containing protein 3)
T4 sequence (P22607 whole entry, change not shown, the tested form may be a part): as the sequence (P22607 whole entry V555M, the tested form may be a part) above, with M555V counted along it
Protocol: NIH/3T3 FGFR3 WT-TACC3 Cell Proliferation Assay
as §2, with “WT-TACC3” for “V555M-TACC3”

T1 sequence (P22607 397-806): as the sequence (P22607 397-806 V555M) above, with M159V counted along it

| Compound | IC50 [1] [µM] | IC50 [2] [µM] | GI50 [3] [µM] | GI50 [4] [µM] |
| --- | --- | --- | --- | --- |
| CC(C)C(Nc1c(-c2nc3cnc(N(C)C)cc3[nH]2)c(=O)[nH]c2cn(C)nc12)c1ncccn1 (single isomer, unassigned) [Compound 11, (S*)-6-(6-(dimethylamino)-1H-imidazo[4,5-c]pyridin-2-yl)-2-methyl-7-((2-methyl-1-(pyrimidin-2-yl)propyl)amino)-2H-pyrazolo[4,3-b]pyridin-5(4H)-one] | 0.00677 | 0.00105 | 0.0507 | 0.0671 |
| CC(C)[C@H](Nc1c(-c2nc3cnccc3[nH]2)c(=O)[nH]c2cn(C)nc12)c1ncccn1 (single isomer, unassigned) [Compound 24, (S*)-6-(1H-imidazo[4,5-c]pyridin-2-yl)-2-methyl-7-((2-methyl-1-(pyrimidin-2-yl)propyl)amino)-2H-pyrazolo[4,3-b]pyridin-5(4H)-one] | 0.0135 | 0.0025 | 0.117 | 0.166 |
| COCC(Nc1c(-c2nc3cc(OC)c(OC)cc3[nH]2)c(=O)[nH]c2cn(C)nc12)c1ncccn1 (single isomer, unassigned) [Compound 25, (S*)-6-(5,6-dimethoxy-1H-benzo[d]imidazol-2-yl)-7-((2-methoxy-1-(pyrimidin-2-yl)ethyl)amino)-2-methyl-2H-pyrazolo[4,3-b]pyridin-5(4H)-one] | 0.0154 | 0.00265 | 0.359 | 0.357 |

Molecules with a lower IC50 [1], results first:

| IC50 [1] [µM] | IC50 [2] [µM] | GI50 [3] [µM] | GI50 [4] [µM] | Compound |
| --- | --- | --- | --- | --- |
| 0.00452 | 0.000753 | 0.0459 | 0.065 | COc1ccc2nc(-c3c(N[C@H](c4ncccn4)C(C)C)c4nn(C)cc4[nH]c3=O)[nH]c2c1 (single isomer, unassigned) [Compound 15, (S*)-6(5-Methoxy-1H-benzo[d]imidazol-2-yl)-2-methyl-7-((2-methyl-1-(pyrimidin-2-yl)propyl)amino)-2H-pyrazolo[4,3-b]pyridin-5(4H)-one] |
| 0.00482 | 0.00114 | 0.0312 | 0.0402 | COc1cc2nc(-c3c(NC(c4ncccn4)C(C)C)c4nn(C)cc4[nH]c3=O)[nH]c2cc1OC (single isomer, unassigned) [Compound 27, (S*)-6-(5,6-dimethoxy-1H-benzo[d]imidazol-2-yl)-2-methyl-7-((2-methyl-1-(pyrimidin-2-yl)propyl)amino)-2H-pyrazolo[4,3-b]pyridin-5(4H)-one] |
| 0.00145 | 0.000634 | 0.112 | 0.0171 | CC[C@H](Nc1c(-c2nc3ccc(OCCOC)cc3[nH]2)c(=O)[nH]c2cn(C)nc12)c1ncccn1 (single isomer, unassigned) [Compound 48, (S*)-6(6-(2-methoxyethoxy)-1H-benzol-2-yl)-2-methyl-7-((1-(pyrimidin-2-yl)propyl)amino)-2H-pyrazolo[4,3-b]pyridin-5(4H)-one] |

From patent US20220340598A1, “PYRAZOLOPYRIDINONE COMPOUNDS” (Janssen Pharmaceutica NV, priority 2017, published 2022)
